Assay results reported in ChEMBL document CHEMBL1208743, “Discovery of novel sphingosine kinase-1 inhibitors. Part 2” (Bioorg Med Chem Lett, 2010).

What was measured:
[1] = Intrinsic clearance in rat liver microsome measured per mg of protein; assay type: ADME; details: liver microsomes
[2] = Distribution coefficient, log D of the compound; assay type: physicochemical; details: octanol/water
[3] = Intrinsic clearance in human liver microsome measured per mg of protein; assay type: ADME; details: liver microsomes
[4] = AUC in rat at 3 mg/kg, po; assay type: ADME, organism-based; design: dose 3 mg/kg, route oral; details: plasma
[5] = Half life in rat at 3 mg/kg, po; assay type: ADME, organism-based; design: dose 3 mg/kg, route oral; details: in vivo
[6] = Oral bioavailability in rat at 3 mg/kg; assay type: ADME, organism-based; details: in vivo
[7] = AUC in rat at 1 mg/kg, iv; assay type: ADME, organism-based; design: dose 1 mg/kg, route intravenous; details: plasma
[8] = Half life in rat at 1 mg/kg, iv; assay type: ADME, organism-based; design: dose 1 mg/kg, route intravenous; details: in vivo
[9] = Cmax in rat at 3 mg/kg, po; assay type: ADME, organism-based; design: dose 3 mg/kg, route oral; details: in vivo
[10] = Volume of distribution at steady state in rat at 1 mg/kg, iv; assay type: ADME, organism-based; design: dose 1 mg/kg, route intravenous; details: in vivo, read-out: Vdss
[11] = Clearance in rat at 1 mg/kg, iv; assay type: ADME, organism-based; design: dose 1 mg/kg, route intravenous; details: in vivo
[12] = Tmax in rat at 3 mg/kg, po; assay type: ADME, organism-based; design: dose 3 mg/kg, route oral; details: in vivo

microsomal CLint [1] | logD [2] | microsomal CLint [3] | AUC [4] | half-life [5] | bioavailability [6] | AUC [7] | half-life [8] | Cmax [9] | Vd [10] | clearance [11] | Tmax [12] | SMILES
60 µL/min/mg | 3.7 | 45 µL/min/mg | – | – | – | – | – | – | – | – | – | CCCCCCCc1nc(-c2ccc(CNC(=O)[C@H]3NCC[C@@H]3O)cc2)no1
50.2 µL/min/mg | 3.6 | < 4.5 µL/min/mg | – | – | – | – | – | – | – | – | – | C[C@H](NC(=O)[C@H]1NCC[C@@H]1O)c1ccc(-c2noc(CCC3CCCCC3)n2)cc1
49.5 µL/min/mg | 2.9 | 12 µL/min/mg | 232 ng·h/mL | 7.55 h | 17.6% | 439 ng·h/mL | 4.3 h | 82.5 ng/mL | 5.55 L/kg | 37.1 mL/min/kg | 0.33 h | C[C@H](NC(=O)[C@H]1NCC[C@@H]1O)c1ccc(-c2noc(CCC3CCCC3)n2)cc1
38.8 µL/min/mg | 4.3 | 10 µL/min/mg | 94.8 ng·h/mL | 1.64 h | 15.3% | 204 ng·h/mL | 1.64 h | 37.5 ng/mL | 7.86 L/kg | 81.8 mL/min/kg | 0.75 h | CC[C@H](NC(=O)[C@H]1NCC[C@@H]1O)c1ccc(-c2noc(CCC3CCCCC3)n2)cc1
